Experimental data from patent EP4257133A1, “OXO-AZAHETEROCYCLIC DERIVATIVES FOR USE IN THE TREATMENT OF MALARIA” (Institut Pasteur, priority 2022, dated 2023).
Where two headings read alike, the source gives them in different places.

Columns and labels:
3815 strain [1] = experiment: Ring stage survival assay (RSA); type: cell-based, P. falciparum; settings: mean ± SD of three experiments
Description: (§1) In early and late trophozoites, multiple PRDX6 foci (white arrow heads) were observed adjacent to the parasite FV. DNA, Hoechst 33342 (nuclei). Scale bars: 5 µm. (B-F) Immuno-transmission electron microscopy (TEM) using monoclonal mouse anti-PRDX6 antibody. (B) Uninfected RBC showing even cytosolic staining for PRDX6. (C-F) P. falciparum-infected RBCs show co-localization of PRDX6 and hemoglobin in vesicles at the inner surface of the parasite plasma membrane in structures that resemble cytostomes (black arrows), at the FV (white arrows), or within the parasite cytosol (striped grey arrow). Scale bars: 500 nm. […] Parasites were treated at ring stage and growth to schizont stage in the same cycle ("progression") or to next generation rings ("growth") was scored by flow cytometry using DNA intercalating fluorescent dye SYBR Green I. • Figure 3 concerns the radioactive PLA2 activity assay using phosphorylated recombinant human PRDX6 in presence or absence of Darapladib. Darapladib inhibits PLA2 activity of PRDX6 with IC50 of ≈0.5µM. • Figure 4 is related to the co-treatment of ART-resistant parasites with artemisinin and Darapladib synergistically reduces parasite survival. (A) Ring stage survival assays (RSA) (Witkowski et al., Lancet Infect. Dis. 13, 1043-1049 (2013)) with Darapladib (Dar) and Dihydroartemisinin (DHA) against ART-resistant P. falciparum strains. For detailed data regarding synergism, cf. Table 1. (B) Growth/Progression assay with continuous Darapladib treatment against ART-resistant P. falciparum strains. Data are means ± SD of three independent experiments, unpaired t-tests. […] The thermal shift of the melting temperature of PRDX6 in presence of Darapladib was determined using a SYPRO orange-based differential scanning fluorimetry (DSF) assay. ΔTm > 0.5°C was considered significant. Incubation with 25µM Darapladib decreased the Tm of PRDX6 by 1.1 ± 0.2 °C.
(§2) It has been investigated whether co-treatment with Darapladib and ART could restore ART-susceptibility in the ring stage survival assay (RSA).
(§3) The survival rate for treatment with 1 µM Darapladib alone and 700 nM DHA alone was multiplied to calculate a theoretical survival rate if the effect of the combination was additive ("Calc. Additive"). The experimentally measured survival rate ("Measured") was divided by the calculated theoretical additive survival rate for the co-treatment. A ratio < 1 for Measured/Calc. indicates synergism, a ratio = 1 indicates an additive effect and a ratio > 1 indicates an antagonistic effect. Data are means ± SD of six independent experiments for NF54 C580Y and three independent experiments for 3815, unpaired t-test.

NF54 Kelch13^C580Y [2] = experiment: Ring stage survival assay (RSA); type: cell-based, P. falciparum; settings: mean ± SD of six experiments
Description: as §1, §2, §3

PRDX6 [3] = biological target: T1, PRDX6 (Homo sapiens, UniProt P30041); experiment: ITDR-CETSA (IsoThermal Dose Response-Cellular Thermal Shift Assay); type: cell-based; design: endogenous in cells; inferred to be P. falciparum-infected human red blood cells, because host and parasite proteins were profiled together; settings: host and parasite proteins
T1 sequence (P30041 1-224): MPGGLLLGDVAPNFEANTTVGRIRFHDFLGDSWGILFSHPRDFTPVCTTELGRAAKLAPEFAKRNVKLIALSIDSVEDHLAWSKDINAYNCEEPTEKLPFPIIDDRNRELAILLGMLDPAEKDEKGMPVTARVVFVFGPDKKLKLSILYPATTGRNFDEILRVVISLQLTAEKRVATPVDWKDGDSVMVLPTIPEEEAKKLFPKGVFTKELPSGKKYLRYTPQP

PRDX6 [4] = biological target: T1, PRDX6; experiment: SYPRO orange-based differential scanning fluorimetry (DSF) assay; type: binding; design: endogenous in cells; inferred to be P. falciparum-infected human red blood cells, because host and parasite proteins were profiled together; settings: incubation with 25µM; ΔTm > 0.5°C considered significant
Description: (§4) In early and late trophozoites, multiple PRDX6 foci (white arrow heads) were observed adjacent to the parasite FV. DNA, Hoechst 33342 (nuclei). Scale bars: 5 µm. (B-F) Immuno-transmission electron microscopy (TEM) using monoclonal mouse anti-PRDX6 antibody. (B) Uninfected RBC showing even cytosolic staining for PRDX6. (C-F) P. falciparum-infected RBCs show co-localization of PRDX6 and hemoglobin in vesicles at the inner surface of the parasite plasma membrane in structures that resemble cytostomes (black arrows), at the FV (white arrows), or within the parasite cytosol (striped grey arrow). Scale bars: 500 nm. […] Parasites were treated at ring stage and growth to schizont stage in the same cycle ("progression") or to next generation rings ("growth") was scored by flow cytometry using DNA intercalating fluorescent dye SYBR Green I. • Figure 3 concerns the radioactive PLA2 activity assay using phosphorylated recombinant human PRDX6 in presence or absence of Darapladib. […] The thermal shift of the melting temperature of PRDX6 in presence of Darapladib was determined using a SYPRO orange-based differential scanning fluorimetry (DSF) assay. ΔTm > 0.5°C was considered significant. […]
Binding of the compounds of the invention to PRDX6 induces a significant shift in the melting temperature of PRDX6 which can be detected using the hydrophobic fluorescent dye SYPRO orange (Figure 5). […]

PRDX6 [5] = biological target: T1, PRDX6; experiment: Activity-based protein profiling (ABPP), competition with the probe TAMRA-FP; type: binding; settings: fluorescent labelling of PRDX6
Description: Darapladib has been assessed for the binding to the PLA2 active site of PRDX6 by activity-based protein profiling (ABPP) using recombinant human PRDX6 and the fluorescently tagged probe TAMRA-FP that covalently labels the serine in the PLA2 active site of PRDX6.

P. falciparum 3D7 = experiment: Blood stage progression and growth assay, flow cytometry with SYBR Green I; type: cell-based; settings: for IC50: Plasmodium falciparum, 3D7, n = 3 in triplicates
Description: as §1, with “1.” for “1. (B) Growth/Progression assay with continuous Darapladib treatment against ART-resistant P. falciparum strains. Data are means ± SD of three independent experiments, unpaired t-tests.”, “Incubation with 25µM Darapladib decreased the Tm of PRDX6 by 1.1 ± 0.2 °C.” left out
Darapladib was also tested in vitro for its ability to block P. falciparum blood stage growth and progression from rings to schizonts. Synchronous P. falciparum 3D7 cultures were treated at the ring stage and effects on ring to schizont development ("progression") and multiplication following completion of a full blood stage cycle ("growth") were assessed by flow cytometry using the DNA intercalating fluorescent dye SYBR Green I. […]

3815 strain [6] = experiment: Growth/Progression assay with continuous treatment; type: cell-based, P. falciparum; settings: continuous treatment during the complete blood stage cycle
Description: as §4, with “Darapladib. Darapladib inhibits PLA2 activity of PRDX6 with IC50 of ≈0.5µM. • Figure 4 is related to the co-treatment of ART-resistant parasites with artemisinin and Darapladib synergistically reduces parasite survival.” for “Darapladib.”

NF54 Kelch13^C580Y [7] = experiment: Growth/Progression assay with continuous treatment; type: cell-based, P. falciparum; settings: continuous treatment during the complete blood stage cycle
Description: as §4, with “Darapladib. Darapladib inhibits PLA2 activity of PRDX6 with IC50 of ≈0.5µM. • Figure 4 is related to the co-treatment of ART-resistant parasites with artemisinin and Darapladib synergistically reduces parasite survival.” for “Darapladib.”

[8] = biological target: T2, phosphorylated recombinant human PRDX6 (Homo sapiens, UniProt P30041); experiment: Radioactive PLA2 activity assay; type: biochemical; settings: read-out: IC50 of inhibition of PLA2 activity of PRDX6
T2 sequence (P30041 1-224): T1 sequence (P30041 1-224)
Description: as §4, with “Darapladib. Darapladib inhibits PLA2 activity of PRDX6 with IC50 of ≈0.5µM. • Figure 4 is related to the co-treatment of ART-resistant parasites with artemisinin and Darapladib synergistically reduces parasite survival.” for “Darapladib.”

Row | Structure (SMILES) | Parasite survival, Drugs Alone, DHA (3815 strain [1]; 3815, 700 nM DHA alone) [%] | Parasite survival, Drugs Alone, DHA (NF54 Kelch13^C580Y [2]; 700 nM DHA alone) [%] | specificity for PRDX6 (PRDX6 [3]) | decrease of the Tm of PRDX6 (PRDX6 [4]) [°C] | binding to the PLA2 active site of PRDX6 (PRDX6 [5]) | Parasite survival, Drugs Alone, Dar 1µM (3815 strain [1]; 3815, 1 µM Darapladib alone) [%] | Parasite survival, Drugs Alone, Dar 1µM (NF54 Kelch13^C580Y [2]; 1 µM Darapladib alone) [%] | parasite development (P. falciparum 3D7; 3D7 cultures treated at the ring stage) | IC50 (P. falciparum 3D7; ring stage to schizont, read-out: IC50 for parasite progression) [nM] | IC50 (P. falciparum 3D7; whole cycle, ring to ring, read-out: IC50 for parasite growth) [nM] | blood stage growth (3815 strain [6]) | blood stage growth (NF54 Kelch13^C580Y [7]) | IC50 [8] [nM]
1 | C[C@H]1[C@@H](O)O[C@@H]2O[C@@]3(C)CC[C@H]4[C@H](C)CC[C@@H]1[C@@]24OO3 [DHA, Dihydroartemisinin] | 7.1 ± 0.9 | 7.9 ± 1.7 |  |  |  |  |  |  |  |  |  |  | 
2 | CCN(CC)CCN(Cc1ccc(-c2ccc(C(F)(F)F)cc2)cc1)C(=O)Cn1c(SCc2ccc(F)cc2)nc(=O)c2c1CCC2 [Darapladib] |  |  | no other essential host or parasite protein is targeted | 1.1 ± 0.2 | bound the PLA2 active site of PRDX6, competed with TAMRA-FP and reduced the fluorescent labelling of PRDX6 | 94.7 ± 3.2 | 89.0 ± 8.1 | arrested parasite development at the trophozoite stage | 560 | 760 | effectively blocked blood stage growth | effectively blocked blood stage growth | ~500
